# From US11976057B2, “MrgX2 antagonists” (GlaxoSmithKline Intellectual Property Development Limited, priority 2020, dated 2024)
# Biological target: T1, human MRGPRX2 (Homo sapiens, UniProt Q96LB1)
# T1 sequence (Q96LB1 1-330): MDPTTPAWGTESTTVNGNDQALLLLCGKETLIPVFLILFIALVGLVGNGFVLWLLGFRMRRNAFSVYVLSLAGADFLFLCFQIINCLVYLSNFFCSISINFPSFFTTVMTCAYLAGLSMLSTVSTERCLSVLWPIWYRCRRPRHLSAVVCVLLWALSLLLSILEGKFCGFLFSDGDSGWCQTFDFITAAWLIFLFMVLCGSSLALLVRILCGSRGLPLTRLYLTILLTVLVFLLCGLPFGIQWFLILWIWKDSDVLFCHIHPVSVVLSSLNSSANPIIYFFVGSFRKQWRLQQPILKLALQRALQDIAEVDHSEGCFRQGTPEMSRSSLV
# Assay: Ca2+ mobilization assay (FLIPR TETRA): inhibition of Cortistatin-14 mediated MRGPRX2 activation
row,IC50 [nM],SMILES
1,≤ 10,"C[C@@H](C(=O)Nc1ccc(Oc2ccc(F)cc2F)cn1)[C@H]1CCC(F)(F)[C@@H](c2ccc(=O)[nH]c2)C1 [Example 280, (R)-2-((1S,3R)-4,4-difluoro-3-(6-oxo-1,6-dihydropyridin-3-yl)cyclohexyl)-N-(5-(2,4-difluorophenoxy)pyridin-2-yl)propanamide]"
2,10 to 100,"CC(C(=O)Nc1ncc(Oc2ccc(F)cc2)cc1F)N1CCC(F)(F)[C@@H](c2ccc(=O)[nH]c2)C1 (stereo partly drawn) [Example 86, 2-((S)-4,4-difluoro-3-(6-oxo-1,6-dihydropyridin-3-yl)piperidin-1-yl)-N-(3-fluoro-5-(4-fluorophenoxy)pyridin-2-yl)propanamide]"
3,10 to 100,"CC(C(=O)Nc1ccc(Oc2ccc(F)cc2)cn1)N1CCC(F)(F)C(c2c[nH]c(=O)c(CN3CCOCC3)c2)C1 (stereo not shown) [Example 226, 2-(4,4-difluoro-3-(5-(morpholinomethyl)-6-oxo-1,6-dihydropyridin-3-yl)piperidin-1-yl)-N-(5-(4-fluorophenoxy)pyridin-2-yl)propanamide]"
4,≤ 10,"C[C@@H](C(=O)Nc1cnc(Oc2c(F)cc(F)cc2F)cn1)N1CCC(F)(F)[C@@H](c2cc[n+]([O-])cc2)C1 [Example 119, 4-((S)-4,4-difluoro-1-((S)-1-oxo-1-((5-(2,4,6-trifluorophenoxy)pyrazin-2-yl)amino)propan-2-yl)piperidin-3-yl)pyridine 1-oxide]"
5,100 to 3160,"C[C@@H](C(=O)Nc1ccc(Cl)cn1)N1CCC[C@@H](c2ccc(=O)n(CC(F)(F)F)c2)C1 (single isomer, unassigned) [Example 167]"
6,100 to 3160,"C[C@@H](C(=O)Nc1ccc(F)cn1)N1CCC(F)(F)[C@@H](c2c[nH]c(=O)c(CN)c2)C1 (single isomer, unassigned) [Example 201]"
7,≤ 10,C[C@@H](C(=O)Nc1ccc(F)cn1)N1CCC(F)(F)[C@@H](c2ccc(=O)n(Cc3ccccc3)c2)C1 [Example 195]
8,100 to 3160,CC(=O)NCc1cc(C2CN(C(C)C(=O)Nc3ccc(F)cn3)CCC2(F)F)cc[n+]1[O-] (stereo not shown) [Example 263]
9,3160 to 31600,"C[C@@H](C(=O)Nc1ccc(Cl)cn1)N1CCC[C@@H](c2ccc(=O)n(C)c2)C1 [Example 176, (S)—N-(5-chloropyridin-2-yl)-2-((S)-3-(1-methyl-6-oxo-1,6-dihydropyridin-3-yl)piperidin-1-yl)propanamide]"
10,≤ 10,"CNCc1cc(C2CN(C(C)C(=O)Nc3ccc(Oc4ccc(F)cc4)cn3)CCC2(F)F)c[nH]c1=O (stereo not shown) [Example 237, 2-(4,4-difluoro-3-(5-((methylamino)methyl)-6-oxo-1,6-dihydropyridin-3-yl)piperidin-1-yl)-N-(5-(4-fluorophenoxy)pyridin-2-yl)propanamide]"
11,≤ 10,"C[C@@H](C(=O)Nc1ccc(OCC2CC2)cn1)[C@H]1CCC(F)(F)[C@@H](c2ccc(=O)[nH]c2)C1 (single isomer, unassigned) [Example 275]"
12,≤ 10,"C[C@@H](C(=O)Nc1cnc(Oc2ccc(F)cc2F)cn1)[C@H]1CCC[C@@H](c2ccc(=O)[nH]c2)C1 [Example 286, (R)-N-(5-(2,4-difluorophenoxy)pyrazin-2-yl)-2-((1S,3R)-3-(6-oxo-1,6-dihydropyridin-3-yl)cyclohexyl)propanamide]"
13,10 to 100,"C[C@@H](C(=O)Nc1ccc(OCC2CC2)cn1)N1CCC(F)(F)[C@@H](c2ccc(=O)n(C)c2)C1 [Example 150, (S)—N-(5-(cyclopropylmethoxy)pyridin-2-yl)-2-((S)-4,4-difluoro-3-(1-methyl-6-oxo-1,6-dihydropyridin-3-yl)piperidin-1-yl)propanamide]"
14,10 to 100,"CC(C(=O)Nc1ccc(Oc2ncc(F)cc2C#N)cn1)N1CCC(F)(F)[C@@H](c2ccc(=O)[nH]c2)C1 (stereo partly drawn) [Example 92, N-(5-((3-cyano-5-fluoropyridin-2-yl)oxy)pyridin-2-yl)-2-((S)-4,4-difluoro-3-(6-oxo-1,6-dihydropyridin-3-yl)piperidin-1-yl)propanamide]"
15,≤ 10,"CC(=O)NCc1cc([C@H]2CN([C@@H](C)C(=O)Nc3ccc(Oc4ccc(F)cc4)cn3)CCC2(F)F)c[nH]c1=O (single isomer, unassigned) [Example 245]"
16,100 to 3160,"CC(C(=O)Nc1ccc(OC2CC3(CCC3)C2)cn1)N1CCC(F)(F)[C@@H](c2ccc(=O)[nH]c2)C1 (stereo partly drawn) [Example 73, 2-((S)-4,4-difluoro-3-(6-oxo-1,6-dihydropyridin-3-yl)piperidin-1-yl)-N-(5-(spiro[3.3]heptan-2-yloxy)pyridin-2-yl)propanamide]"

row,IC50 [nM],SMILES
1,10 to 100,"C[C@@H](C(=O)Nc1ccc(OCC2CC2)cn1)N1CCC(F)(F)[C@@H](c2c[nH]c(=O)c(N)c2)C1 [Example 138, (S)-2-((S)-3-(5-amino-6-oxo-1,6-dihydropyridin-3-yl)-4,4-difluoropiperidin-1-yl)-N-(5-(cyclopropylmethoxy)pyridin-2-yl)propanamide]"
2,≤ 10,"C[C@@H](C(=O)Nc1ccc(Oc2ccc(F)cc2)cn1)N1CCC(F)(F)[C@@H](c2c[nH]c(=O)c(CS(C)(=O)=O)c2)C1 [Example 214, (S)-2-((S)-4,4-difluoro-3-(5-((methylsulfonyl)methyl)-6-oxo-1,6-dihydropyridin-3-yl)piperidin-1-yl)-N-(5-(4-fluorophenoxy)pyridin-2-yl)propanamide]"
3,≤ 10,"C[C@@H](C(=O)Nc1ccc(Oc2c(F)cccc2F)cn1)N1CCC(F)(F)[C@@H](c2cc[n+]([O-])cc2)C1 [Example 130, 4-((S)-1-((S)-1-((5-(2,6-difluorophenoxy)pyridin-2-yl)amino)-1-oxopropan-2-yl)-4,4-difluoropiperidin-3-yl)pyridine 1-oxide]"
4,≤ 10,"CNCc1cc([C@H]2CN([C@@H](C)C(=O)Nc3ccc(Oc4ccc(F)cc4F)cn3)CCC2(F)F)c[nH]c1=O [Example 243, (S)-2-((S)-4,4-difluoro-3-(5-((methylamino)methyl)-6-oxo-1,6-dihydropyridin-3-yl)piperidin-1-yl)-N-(5-(2,4-difluorophenoxy)pyridin-2-yl)propanamide]"
5,≤ 10,"CC(C(=O)Nc1ccc(Oc2ccc(F)cc2)cn1)N1CCC(F)(F)C(c2c[nH]c(=O)c(CNCCO)c2)C1 (stereo not shown) [Example 238, 2-(4,4-difluoro-3-(5-(((2-hydroxyethyl)amino)methyl)-6-oxo-1,6-dihydropyridin-3-yl)piperidin-1-yl)-N-(5-(4-fluorophenoxy)pyridin-2-yl)propanamide]"
6,100 to 3160,"CC(C(=O)Nc1ccc(CC2CCCCC2)cn1)N1CCC(F)(F)[C@@H](c2ccc(=O)[nH]c2)C1 (stereo partly drawn) [Example 27, N-(5-(cyclohexyl-methyl)pyridin-2-yl)-2-((S)-4,4-difluoro-3-(6-oxo-1,6-dihydropyridin-3-yl)piperidin-1-yl)propanamide]"
7,10 to 100,CC(C(=O)Nc1ccc(Oc2ccc(F)cc2)cn1)N1CCC(F)(F)C(c2cc[n+]([O-])c(C(O)C(F)(F)F)c2)C1 (stereo not shown) [Example 257]
8,3160 to 31600,"C[C@@H](C(=O)Nc1ccc(OCC2CC2)cn1)N1CCC[C@@](O)(c2ccc(=O)[nH]c2)C1 (single isomer, unassigned) [Example 171]"
9,≤ 10,"C[C@@H](C(=O)Nc1cnc(Oc2ccc(F)cc2F)cn1)[C@H]1CCC(F)(F)[C@@H](c2cc[n+]([O-])cc2)C1 [Example 295, 4-((1R,5S)-5-((R)-1-((5-(2,4-difluorophenoxy)pyrazin-2-yl)amino)-1-oxopropan-2-yl)-2,2-difluorocyclohexyl)pyridine 1-oxide]"
10,100 to 3160,"C[C@@H](C(=O)Nc1ccc(F)cn1)N1CCC(F)(F)[C@@H](c2c[nH]c(=O)c(N)c2)C1 [Example 142, (S)-2-((S)-3-(5-amino-6-oxo-1,6-dihydropyridin-3-yl)-4,4-difluoropiperidin-1-yl)-N-(5-fluoropyridin-2-yl)propanamide]"
11,≤ 10,"C[C@@H](C(=O)Nc1ccc(Oc2ccc(F)cc2)cn1)N1CCC(F)(F)[C@@H](c2ccc(=O)[nH]c2)C1 [Example 5, (S)-2-((S)-4,4-difluoro-3-(6-oxo-1,6-dihydropyridin-3-yl)piperidin-1-yl)-N-(5-(4-fluorophenoxy)pyridin-2-yl)propanamide]"
12,10 to 100,"C[C@@H](C(=O)Nc1ccc(OCC2CC2)cn1)N1CCC(F)(F)[C@@H](c2c[nH]c(=O)c(C(C)(C)O)c2)C1 [Example 152, (S)—N-(5-(cyclopropylmethoxy)pyridin-2-yl)-2-((S)-4,4-difluoro-3-(5-(2-hydroxypropan-2-yl)-6-oxo-1,6-dihydropyridin-3-yl)piperidin-1-yl)propanamide]"
13,10 to 100,"C[C@@H](C(=O)Nc1ccc(Oc2ccccn2)cn1)N1CCC(F)(F)[C@@H](c2cc[n+]([O-])cc2)C1 [Example 126, 4-((S)-4,4-difluoro-1-((S)-1-oxo-1-((5-(pyridin-2-yloxy)pyridin-2-yl)amino)propan-2-yl)piperidin-3-yl)pyridine 1-oxide]"
14,10 to 100,"C[C@@H](C(=O)Nc1ccc(C(F)(F)c2ccc(F)cc2)cn1)N1CCC(F)(F)[C@@H](c2cc[n+]([O-])cc2)C1 [Example 127, 4-((S)-1-((S)-1-((5-(difluoro(4-fluorophenyl)methyl)pyridin-2-yl)amino)-1-oxopropan-2-yl)-4,4-difluoropiperidin-3-yl)pyridine 1-oxide]"
15,100 to 3160,"Cc1cccc(-c2ccc(NC(=O)[C@H](C)N3CCC(F)(F)[C@@H](c4ccc(=O)[nH]c4)C3)nc2)n1 [Example 11, (S)-2-((S)-4,4-difluoro-3-(6-oxo-1,6-dihydropyridin-3-yl)piperidin-1-yl)-N-(6-methyl-[2,3′-bipyridin]-6′-yl)propanamide]"
